One test has as its target T1, eIF2 complex (eIF2αβγ) (Saccharomyces cerevisiae, UniProt P32481).
T1 construct: gene GCD11; full-length heterotrimer, 8xHis tag on N-terminus of eIF2γ (GCD11), overexpressed from pRS425_GCD11, SUI3, SUI2 in yeast YP920 (sui2Δ sui3Δ gcd11Δ); Ni-NTA, heparin and cation exchange; with Eukaryotic translation initiation factor 2 subunit alpha
In words: fluorescence anisotropy titration of protein. In kind it is binding. The following applies: labelled compound at 100 nM; pH 7.5, 110 mM K acetate, 2.5 mM Mg acetate, 26 °C; Hill fit n = 1. On the technique in general: Polarisation of emitted light reports the rotation of a fluorescent probe.

The target in test [1] is T2, N-terminal 3xHA-tagged eIF2γ (wild type) (yeast, UniProt P32481 1-527).
T2 construct: eIF2γ, yeast GCD11; GCD11 ORF + terminator cloned behind GCD11 promoter + 3xHA; also called 3xHA eIF2γ; eIF2γ^WT; source: yeast strain YP912 (gcd11Δ, sui3Δ), single-copy plasmid, in whole-cell extract; not shown: 3xHA, N-terminal, kept
T2 sequence (P32481 whole entry): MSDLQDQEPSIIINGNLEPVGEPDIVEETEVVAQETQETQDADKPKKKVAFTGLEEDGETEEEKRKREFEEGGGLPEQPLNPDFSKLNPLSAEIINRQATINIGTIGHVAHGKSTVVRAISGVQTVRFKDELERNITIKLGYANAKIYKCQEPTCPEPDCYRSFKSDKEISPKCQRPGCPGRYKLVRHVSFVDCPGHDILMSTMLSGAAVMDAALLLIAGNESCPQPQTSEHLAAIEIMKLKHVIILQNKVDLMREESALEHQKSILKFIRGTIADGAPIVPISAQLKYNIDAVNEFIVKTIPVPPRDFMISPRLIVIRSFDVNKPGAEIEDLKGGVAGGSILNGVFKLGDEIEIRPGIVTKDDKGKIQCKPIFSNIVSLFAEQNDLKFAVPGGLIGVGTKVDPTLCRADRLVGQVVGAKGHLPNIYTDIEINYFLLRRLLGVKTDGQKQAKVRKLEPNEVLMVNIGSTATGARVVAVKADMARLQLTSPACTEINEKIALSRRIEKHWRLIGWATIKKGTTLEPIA
In words: co-IP; 3xHA-eIF2γ precipitated with anti-HA agarose beads from 300 μg yeast WCE (YP912), 4°C, 1 h; 20 mM HEPES pH 7.5, 100 mM KCl, 5 mM MgCl2, 5 mM NaF, 1 mM EDTA, 0.2% NP-40, 1% BSA; Western blot, bands normalised to the anti-HA band. The following applies: partners not purified. Background: Immunoblotting shows a protein as a band on a membrane.

Test [2] deals with T3, 3xHA-tagged eIF2β T238A mutant (yeast, UniProt P09064 1-285, T238A).
T3 construct: eIF2β, yeast SUI3 ORF + terminator with T238A, cloned behind SUI3 promoter + 3xHA; also called 3xHA-SUI3-T238A; source: yeast, single-copy plasmid, in whole-cell extract; not shown: 3xHA, N-terminal, kept
T3 sequence (looked up): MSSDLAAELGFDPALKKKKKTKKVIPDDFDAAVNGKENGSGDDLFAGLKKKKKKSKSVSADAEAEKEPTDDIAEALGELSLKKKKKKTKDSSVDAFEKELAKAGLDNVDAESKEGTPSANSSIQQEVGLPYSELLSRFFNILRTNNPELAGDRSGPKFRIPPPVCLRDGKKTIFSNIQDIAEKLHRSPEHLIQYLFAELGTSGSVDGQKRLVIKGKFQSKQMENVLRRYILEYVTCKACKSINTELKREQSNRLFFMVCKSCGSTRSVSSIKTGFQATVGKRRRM
In words: co-IP; Co-IP of the 3xHA-tagged eIF2β subunit from yeast extract (Supplementary Figure S1). The following applies: partners not purified.

T1 sequence (P32481 whole entry, one chain of several): as the sequence (P32481 whole entry) above
T1 sequence (P09064 whole entry partner, one chain of several): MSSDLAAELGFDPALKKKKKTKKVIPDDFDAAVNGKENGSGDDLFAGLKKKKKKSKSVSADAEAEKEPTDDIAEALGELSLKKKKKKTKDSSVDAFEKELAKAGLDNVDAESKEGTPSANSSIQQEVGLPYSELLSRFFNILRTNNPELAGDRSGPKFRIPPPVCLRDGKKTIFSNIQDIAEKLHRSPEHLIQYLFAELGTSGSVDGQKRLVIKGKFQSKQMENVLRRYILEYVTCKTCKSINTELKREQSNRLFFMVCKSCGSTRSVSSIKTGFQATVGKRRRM

Consider GDP-BODIPY, for which, on eIF2 complex (eIF2αβγ), the affinity, expressed as Kd, was 36.7 nM.

In the case of GDPγS-BODIPY, on eIF2 complex (eIF2αβγ), the Kd (in general, the free concentration of one partner at which half of the binding sites on the other are occupied at equilibrium, for simple one-to-one binding) came out at 1400 nM.

B1: eIF2α subunit (natural protein, yeast, UniProt P20459 1-304, looked up)
chain: MSTSHCRFYENKYPEIDDIVMVNVQQIAEMGAYVKLLEYDNIEGMILLSELSRRRIRSIQKLIRVGKNDVAVVLRVDKEKGYIDLSKRRVSSEDIIKCEEKYQKSKTVHSILRYCAEKFQIPLEELYKTIAWPLSRKFGHAYEAFKLSIIDETVWEGIEPPSKDVLDELKNYISKRLTPQAVKIRADVEVSCFSYEGIDAIKDALKSAEDMSTEQMQVKVKLVAAPLYVLTTQALDKQKGIEQLESAIEKITEVITKYGGVCNITMPPKAVTATEDAELQALLESKELDNRSDSEDDEDESDDE
notes: eIF2α, yeast SUI2; chromosomal gene in the co-IP strains, whole SUI2 gene on pRS425 for the purified complex; also called SUI2; source: endogenous, yeast whole-cell extract (YP912); yeast YP920, high-copy pRS425 plasmid, co-purified in the 8xHis-eIF2 complex
In the case of B1, the “fold change of binding in the eIF2β^T238A strain against the eIF2β^WT strain” value in test [1] is ~4.5 fold. Moreover, the “fold change of binding against the 3xHA-eIF2β wild type” value in test [2] is 1.3 fold.

Source of the values: PMC11230868, “eIF2β zinc-binding domain interacts with the eIF2γ subunit through the guanine nucleotide binding interface to promote Met-tRNAi^Met binding” (Bioscience Reports, 2024).
